According to US8133847B2, “Pyrido[2,3-B]pyrazine derivatives useful as herbicidal compounds” (Syngenta Limited, priority 2006, dated 2012):

How the values were obtained:
Test in all cases: Example B1 herbicidal action, post-emergence, 96-cell seed trays, climatic chamber
Type in all cases: in vivo
[1] = test system: Nasturtium officinale (NAAOF); set-up: scale not given here; conditions: Application post-emergence, 1000 mg/l spray equivalent to 1000 g/ha, evaluated after 9 days (100=total damage to plant, 0=no damage to plant)
Protocol: (§1) Seeds of a variety of test species were sown in sterilised standard soil in seed trays each having 96 cells. After cultivation for 8 to 9 days cultivation (post-emergence) under controlled conditions in a climatic chamber (cultivation at 23/17° C., day/night; 13 hours light; 50-60% humidity), the plants were treated with an aqueous spray solution of 1000 mg/l of the active ingredient dissolved in 10% DMSO (dimethyl sulfoxide, CAS RN 67-68-5) as a solvent, equivalent to 1000 g/ha. The plants were grown in the climatic chamber after application at (24/19° C., day/night; 13 hours light; 50-60% humidity) and watered twice daily. After 9 days until the test was evaluated (100=total damage to plant, 0=no damage to plant)

[2] = test system: Amaranthus retroflexus (AMARE); conditions: Application post-emergence, 1000 mg/l spray equivalent to 1000 g/ha, evaluated after 9 days
Protocol: as §1

Solanum nigrum (SOLNI) = conditions: Application post-emergence, 1000 mg/l spray equivalent to 1000 g/ha, evaluated after 9 days (100=total damage to plant, 0=no damage to plant)
Protocol: as §1

Stellaria media (STEME) = conditions: Application post-emergence, 1000 mg/l spray equivalent to 1000 g/ha, evaluated after 9 days (100=total damage to plant, 0=no damage to plant)
Protocol: as §1

Structure (SMILES)	damage to plant, Nasturtium officinale (NAAOF) [1]	damage to plant, Amaranthus retroflexus (AMARE) [2]	damage to plant, Solanum nigrum (SOLNI) (Solanum nigrum (SOLNI))	damage to plant, Stellaria media (STEME) (Stellaria media (STEME))
CCC(=O)Oc1c(-c2c(Cl)cccc2Cl)c(=O)n(CC)c2nccnc12 [Compound C31]	8	8	4	8
CCC(=O)Oc1c(-c2c(Cl)cccc2Cl)c(=O)n(C)c2nccnc12 [Compound C32]	8	8	2	8
CC(=O)Oc1c(-c2c(Cl)cccc2Cl)c(=O)n(C)c2nccnc12 [Compound C33]	7	3	6	6
CCC(=O)Oc1c(-c2c(Cl)cccc2Cl)c(=O)n(CCOC)c2nccnc12 [Compound C34]	5	2	0	6
C/C=C/C(=O)Oc1c(-c2c(Cl)cccc2Cl)c(=O)n(C)c2nccnc12 [Compound C35]	7	2	0	7
CCOC(=O)Oc1c(-c2c(Cl)cccc2Cl)c(=O)n(C)c2nccnc12 [Compound C36]	7	5	6	5
Cn1c(=O)c(-c2c(Cl)cccc2Cl)c(OC(=O)C(C)(C)C)c2nccnc21 [Compound C37]	7	5	6	5
CCCC(=O)Oc1c(-c2c(Cl)cccc2Cl)c(=O)n(C)c2nccnc12 [Compound C38]	7	5	7	7
C=CCn1c(=O)c(-c2c(Cl)cccc2Cl)c(OC(=O)OCC)c2nccnc21 [Compound C39]	6	7	7	6
CCCCn1c(=O)c(-c2c(Cl)cccc2Cl)c(OC(C)=O)c2nccnc21 [Compound C40]	2	3	2	2
CCn1c(=O)c(-c2c(Cl)cccc2Cl)c(OC(=O)C(C)(C)C)c2nccnc21 [Compound C41]	2	2	0	2
CC(=O)Oc1c(-c2ccc(Cl)cc2Cl)c(=O)n(C)c2nccnc12 [Compound C43]	5	3	3	5
CCC(=O)Oc1c(-c2ccc(F)cc2Cl)c(=O)n(C)c2nccnc12 [Compound C44]	4	8	2	6
CCn1c(=O)c(-c2cccc(Cl)c2Cl)c(OC(=O)C(C)C)c2nccnc21 [Compound C45]	8	8	6	9
CC(C)Cn1c(=O)c(-c2ccccc2OC(F)(F)F)c(OC(=O)C(C)(C)C)c2nccnc21 [Compound C46]	1	0	4	1
CC(C)(C)C(=O)Oc1c(-c2ccccc2OC(F)(F)F)c(=O)n(CC2CC2)c2nccnc12 [Compound C47]	1	4	3	0
CC(C)Cn1c(=O)c(-c2c(F)ccc(F)c2Cl)c(OC(=O)C(C)(C)C)c2nccnc21 [Compound C48]	0	0	1	1
CC(C)(C)C(=O)Oc1c(-c2c(F)ccc(F)c2Cl)c(=O)n(CC2CC2)c2nccnc12 [Compound C49]	0	3	0	3
Cn1c(=O)c(-c2ccccc2Cl)c(OC(=O)C(C)(C)C)c2nccnc21 [Compound C50]	7	4	4	7
Cn1c(=O)c(-c2c(F)ccc(F)c2Cl)c(OC(=O)c2ccc([N+](=O)[O-])cc2)c2nccnc21 [Compound C51]	7	7	0	7
Cn1c(=O)c(-c2ccc3ccccc3c2)c(OC(=O)C(C)(C)C)c2nccnc21 [Compound C52]	3	0	0	3
Cn1c(=O)c(-c2c(F)ccc(F)c2Cl)c(OC(=O)CC(C)(C)C)c2nccnc21 [Compound C53]	7	7	3	5
Cn1c(=O)c(-c2c(F)ccc(F)c2F)c(OC(=O)C(C)(C)C)c2nccnc21 [Compound C55]	0	4	0	4
CC(C)C(=O)c1c(-c2c(Cl)cccc2Cl)c(=O)n(C)c2nccnc12 [Compound C56]	7	8	0	7
CCn1c(=O)c(-c2c(F)ccc(F)c2F)c(OC(=O)C(C)C)c2nccnc21 [Compound C57]	6	5	2	7
CC(C)C(=O)Oc1c(-c2c(F)ccc(F)c2F)c(=O)n(C)c2nccnc12 [Compound C58]	7	6	0	8
CCn1c(=O)c(-c2c(F)ccc(F)c2F)c(OC(=O)C(C)(C)C)c2nccnc21 [Compound C59]	7	6	0	7
CC(C)C(=O)Oc1c(-c2c(F)ccc(F)c2Cl)c(=O)n(CC2CC2)c2nccnc12 [Compound C60]	8	7	7	5
Cn1c(=O)c(-c2ccc(Cl)cc2Cl)c(OC(=O)C(C)(C)C)c2nccnc21 [Compound C61]	8	8	2	8
